Data from patent US20260250290A1 (BRISTOL-MYERS SQUIBB COMPANY, priority 2023, published 2026).

Molecular target: T1, full length SGK1 (Homo sapiens, UniProt O00141)
T1 construct: 125 μM full length SGK1 (Life Technologies Part #PR7358A); purchased Life Technologies PR7358A
T1 sequence (O00141 1-431): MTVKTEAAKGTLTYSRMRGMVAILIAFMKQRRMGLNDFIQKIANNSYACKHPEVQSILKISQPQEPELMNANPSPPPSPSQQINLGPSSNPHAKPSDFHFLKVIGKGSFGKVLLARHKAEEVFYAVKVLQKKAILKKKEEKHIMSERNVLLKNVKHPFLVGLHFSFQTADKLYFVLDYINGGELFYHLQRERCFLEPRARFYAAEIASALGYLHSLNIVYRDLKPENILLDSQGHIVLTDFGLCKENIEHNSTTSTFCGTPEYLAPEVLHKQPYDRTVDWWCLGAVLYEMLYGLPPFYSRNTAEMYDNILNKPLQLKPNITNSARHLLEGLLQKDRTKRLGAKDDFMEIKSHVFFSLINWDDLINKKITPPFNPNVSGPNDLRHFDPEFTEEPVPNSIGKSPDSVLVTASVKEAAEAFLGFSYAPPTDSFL
Experiment: SGK1 inhibition Assay A (Caliper LabChip electrophoretic separation of fluorescent peptide substrate and phosphorylated product)
Type: biochemical
Settings: Assay A; 20 μM ATP, 40 min incubation; read-out: SGK1 IC50

SMILES	IC50 [nM]
CC(=O)N1CC=C(c2cc(N3CCC[C@@H](NC(=O)c4cc(N5CCOCC5)cs4)C3)c3c(N)ncnn23)C1 [Example 272, (R)—N-(1-(7-(1-acetyl-2,5-dihydro-1H-pyrrol-3-yl)-4-aminopyrrolo[2,1-f][1,2,4]triazin-5-yl)piperidin-3-yl)-4-morpholinothiophene-2-carboxamide]	28
CN1CCN(CCOc2cc(Cl)sc2C(=O)N[C@@H]2CCCN(c3cc(C4=CCN(S(C)(=O)=O)C4)n4ncnc(N)c34)C2)CC1 [Example 273, (R)—N-(1-(4-amino-7-(1-(methylsulfonyl)-2,5-dihydro-1H-pyrrol-3-yl)pyrrolo[2,1-f][1,2,4]triazin-5-yl)piperidin-3-yl)-5-chloro-3-(2-(4-methylpiperazin-1-yl)ethoxy)thiophene-2-carboxamide]	5
CS(=O)(=O)c1ccc(-c2cc(N3CCC[C@@H](NS(=O)(=O)c4ccccc4)C3)c3c(N)ncnn23)cc1 [Example 274, (R)—N-(1-(4-amino-7-(4-(methylsulfonyl)phenyl)pyrrolo[2,1-f][1,2,4]triazin-5-yl)piperidin-3-yl)benzenesulfonamide]	916
CN(C)CCOc1cc(Cl)sc1C(=O)N[C@@H]1CCCN(c2cc(-c3cnn(C4CCOC4)c3)n3ncnc(N)c23)C1 (stereo partly drawn) [Example 275, N-((3R)-1-(4-amino-7-(1-(tetrahydrofuran-3-yl)-1H-pyrazol-4-yl)pyrrolo[2,1-f][1,2,4]triazin-5-yl)piperidin-3-yl)-5-chloro-3-(2-(dimethylamino)ethoxy)thiophene-2-carboxamide]	919
CN(C)CCOc1cc(Cl)sc1C(=O)N[C@@H]1CCCN(c2cc(-c3ccc(C=O)cc3)n3ncnc(N)c23)C1 [Example 276, (R)—N-(1-(4-amino-7-(4-formylphenyl)pyrrolo[2,1-f][1,2,4]triazin-5-yl)piperidin-3-yl)-5-chloro-3-(2-(dimethylamino)ethoxy)thiophene-2-carboxamide]	1
Cc1cc(-c2cc(N3CCC[C@@H](NC(=O)c4sc(Cl)cc4OCCN(C)C)C3)c3c(N)ncnn23)cc(C(F)F)n1 [Example 277, (R)-N-(1-(4-amino-7-(2-(difluoromethyl)-6-methylpyridin-4-yl)pyrrolo[2,1-f][1,2,4]triazin-5-yl)piperidin-3-yl)-5-chloro-3-(2-(dimethylamino)ethoxy) thiophene-2-carboxamide]	10
CN(C)CCOc1cc(Cl)sc1C(=O)N[C@@H]1CCCN(c2cc(-c3ccc(C#N)nc3)n3ncnc(N)c23)C1 [Example 278, (R)-N-(1-(4-amino-7-(6-cyanopyridin-3-yl)pyrrolo[2,1-f][1,2,4]triazin-5-yl)piperidin-3-yl)-5-chloro-3-(2-(dimethylamino)ethoxy) thiophene-2-carboxamide]	1
CN(C)CCOc1cc(Cl)sc1C(=O)N[C@@H]1CCCN(c2cc(-c3ccc(C#N)c(F)c3)n3ncnc(N)c23)C1 [Example 279, (R)-N-(1-(4-amino-7-(4-cyano-3-fluorophenyl)pyrrolo[2,1-f][1,2,4]triazin-5-yl)piperidin-3-yl)-5-chloro-3-(2-(dimethylamino)ethoxy) thiophene-2-carboxamide]	3
CN(C)CCOc1cc(Cl)sc1C(=O)N[C@@H]1CCCN(c2cc(-c3ccnc(C#N)c3)n3ncnc(N)c23)C1 [Example 280, (R)-N-(1-(4-amino-7-(2-cyanopyridin-4-yl)pyrrolo[2,1-f][1,2,4]triazin-5-yl)piperidin-3-yl)-5-chloro-3-(2-(dimethylamino)ethoxy) thiophene-2-carboxamide]	2
CN(C)CCOc1cc(Cl)sc1C(=O)N[C@@H]1CCCN(c2cc(-c3ccc(=O)n(CC(F)F)c3)n3ncnc(N)c23)C1 [Example 281, (R)-N-(1-(4-amino-7-(1-(2,2-difluoroethyl)-6-oxo-1,6-dihydropyridin-3-yl)pyrrolo[2,1-f][1,2,4]triazin-5-yl)piperidin-3-yl)-5-chloro-3-(2-(dimethylamino)ethoxy) thiophene-2-carboxamide]	4
CN(C)CCOc1cc(Cl)sc1C(=O)N[C@@H]1CCCN(c2cc(-c3cccc(C=O)c3)n3ncnc(N)c23)C1 [Example 283, (R)-N-(1-(4-amino-7-(3-formylphenyl)pyrrolo[2,1-f][1,2,4]triazin-5-yl)piperidin-3-yl)-5-chloro-3-(2-(dimethylamino)ethoxy) thiophene-2-carboxamide]	6
COC(=O)N1CC=C(c2cc(N3CCC[C@@H](NC(=O)c4sc(Cl)cc4OCCN4CCC(F)(F)CC4)C3)c3c(N)ncnn23)C1 [Example 284, methyl (R)-3-(4-amino-5-(3-(5-chloro-3-(2-(4,4-difluoropiperidin-1-yl)ethoxy)thiophene-2-carboxamido)piperidin-1-yl)pyrrolo[2,1-f][1,2,4]triazin-7-yl)-2,5-dihydro-1H-pyrrole-1-carboxylate]	18
COC(=O)N1CC=C(c2cc(N3CCC[C@@H](NC(=O)c4sc(Cl)cc4OCCN4CCC(F)(F)C4)C3)c3c(N)ncnn23)C1 [Example 285, Methyl (R)-3-(4-amino-5-(3-(5-chloro-3-(2-(3,3-difluoropyrrolidin-1-yl)ethoxy)thiophene-2-carboxamido)piperidin-1-yl)pyrrolo[2,1-f][1,2,4]triazin-7-yl)-2,5-dihydro-1H-pyrrole-1-carboxylate]	17
COC(=O)N1CC=C(c2cc(N3CCC[C@@H](NC(=O)c4sc(Cl)cc4OCCN4CCOC(C)C4)C3)c3c(N)ncnn23)C1 (stereo partly drawn) [Example 286, Methyl 3-(4-amino-5-((3R)-3-(5-chloro-3-(2-(2-methylmorpholino)ethoxy)thiophene-2-carboxamido)piperidin-1-yl)pyrrolo[2,1-f] [1,2,4]triazin-7-yl)-2,5-dihydro-1H-pyrrole-1-carboxylate]	23
COC(=O)N1CC=C(c2cc(N3CCC[C@@H](NC(=O)c4sc(Cl)cc4OCCN4C[C@@H](C)O[C@@H](C)C4)C3)c3c(N)ncnn23)C1 [Example 287, Methyl 3-(4-amino-5-((R)-3-(5-chloro-3-(2-((2S,6R)-2,6-dimethylmorpholino)ethoxy)thiophene-2-carboxamido)piperidin-1-yl)pyrrolo[2,1-f] [1,2,4]triazin-7-yl)-2,5-dihydro-1H-pyrrole-1-carboxylate]	22
COC(=O)N1CC=C(c2cc(N3CCC[C@@H](NC(=O)c4sc(Cl)cc4OCCN4CC(F)(F)C4)C3)c3c(N)ncnn23)C1 [Example 288, Methyl (R)-3-(4-amino-5-(3-(5-chloro-3-(2-(3,3-difluoroazetidin-1-yl)ethoxy)thiophene-2-carboxamido)piperidin-1-yl)pyrrolo[2,1-f][1,2,4]triazin-7-yl)-2,5-dihydro-1H-pyrrole-1-carboxylate]	16
COC(=O)N1CC=C(c2cc(N3CCC[C@@H](NC(=O)c4sc(Cl)cc4OCCN4CC5(COC5)C4)C3)c3c(N)ncnn23)C1 [Example 289, Methyl (R)-3-(5-(3-(3-(2-(2-oxa-6-azaspiro[3.3]heptan-6-yl)ethoxy)-5-chlorothiophene-2-carboxamido)piperidin-1-yl)-4-aminopyrrolo[2,1-f][1,2,4]triazin-7-yl)-2,5-dihydro-1H-pyrrole-1-carboxylate]	14
COC(=O)N1CC=C(c2cc(N3CCC[C@@H](NC(=O)c4sc(Cl)cc4OCCN4CC(OC)C4)C3)c3c(N)ncnn23)C1 [Example 290]	21
COC(=O)N1CC=C(c2cc(N3CCC[C@@H](NC(=O)c4sc(Cl)cc4OCCN4CCS(=O)(=O)CC4)C3)c3c(N)ncnn23)C1 [Example 291, Methyl (R)-3-(4-amino-5-(3-(5-chloro-3-(2-(1,1-dioxidothiomorpholino)ethoxy)thiophene-2-carboxamido)piperidin-1-yl)pyrrolo[2,1-f] [1,2,4]triazin-7-yl)-2,5-dihydro-1H-pyrrole-1-carboxylate]	8
COC(=O)N1CC=C(c2cc(N3CCC[C@@H](NC(=O)c4sc(Cl)cc4OCCN4CCCC4)C3)c3c(N)ncnn23)C1 [Example 292, Methyl (R)-3-(4-amino-5-(3-(5-chloro-3-(2-(pyrrolidin-1-yl)ethoxy)thiophene-2-carboxamido)piperidin-1-yl)pyrrolo[2,1-f] [1,2,4]triazin-7-yl)-2,5-dihydro-1H-pyrrole-1-carboxylate]	10
Nc1ncnn2c(-c3ccnc(C(F)F)c3)cc(N3CCC[C@@H](NC(=O)c4sc(Cl)cc4OCCN4CCC(F)(F)CC4)C3)c12 [Example 293, (R)-N-(1-(4-amino-7-(2-(difluoromethyl)pyridin-4-yl)pyrrolo[2,1-f][1,2,4]triazin-5-yl)piperidin-3-yl)-5-chloro-3-(2-(4,4-difluoropiperidin-1-yl)ethoxy)thiophene-2-carboxamide]	9
Nc1ncnn2c(-c3ccnc(C(F)F)c3)cc(N3CCC[C@@H](NC(=O)c4sc(Cl)cc4OCCN4CCC(F)(F)C4)C3)c12 [Example 294, (R)-N-(1-(4-amino-7-(2-(difluoromethyl)pyridin-4-yl)pyrrolo[2,1-f][1,2,4]triazin-5-yl)piperidin-3-yl)-5-chloro-3-(2-(3,3-difluoropyrrolidin-1-yl)ethoxy)thiophene-2-carboxamide]	7
CC1CN(CCOc2cc(Cl)sc2C(=O)N[C@@H]2CCCN(c3cc(-c4ccnc(C(F)F)c4)n4ncnc(N)c34)C2)CCO1 (stereo partly drawn) [Example 295, N-((R)-1-(4-amino-7-(2-(difluoromethyl)pyridin-4-yl)pyrrolo[2,1-f][1,2,4]triazin-5-yl)piperidin-3-yl)-5-chloro-3-(2-(2-methylmorpholino)ethoxy) thiophene-2-carboxamide]	7
